Data on 1 molecule can be found in US20260273074A1, “FERRITIN-TARGETING PROTACS AND METHODS OF INDUCING PYROPTOSIS” (Wisconsin Alumni Research Foundation, priority 2023, published 2026).

Data set [1] relates to GSDME-N. The experiment in a line: Western blot of cleaved N-terminal GSDME (GSDME-N) in B16F10 cells. It counts as cell-based, murine. The note with it: 20 h. As to the method: (§1) As for the determination of cleaved-GSDME and cleaved-caspase-3, B16F10 cells were seeded in 6-well culture plates (2×10^5 cells per well) and cultured for 24 h. Then the medium in the corresponding wells except the negative control was replaced with 1 mL of medium containing ferritin degraders, albumin nanoparticles, or the degrader with inhibitors at the indicated concentrations. Incubation for another 6 or 8 h was used to test the cleaved-caspase-3, while treatment for another 16 or 20 h was used to test cleaved-GSDME. The following procedures were the same as mentioned above.

For data set [2], the system named is B16F10 cells. Briefly: Cell viability evaluation by CCK-8 assay. The note with it: for IC50: Mus musculus, read-out: IC50 of cell viability. How it is done:
Cell viability evaluation: The cell viability of B16F10 cells treated with ferritin degraders with or without various inhibitors was evaluated by CCK-8 assay. Briefly, 5×10^3 cells were seeded in 96-well plates and cultured for 24 h for attachment. Then the medium in the corresponding wells, except the control, was replaced with 100 μL of medium containing the indicated degrader formulations with concentrations of 0.008, 0.04, 0.2, 1, and 5 μM. After incubation for 24 or 48 h, CCK-8 reagent was added and interacted with cells at 37° C. for 1 h. The absorbance was measured by a microplate reader (Infinite M Plex) at the detection wavelength of 450 nm.
For blocking assays with Z-VAD, NSCI, and VX-765, 5×10^3 cells were seeded in 96-well plates and cultured 24 h for attachment. Then the medium in the corresponding wells, except the control, was replaced with 100 μL of medium containing Z-VAD (10 μM), NSCI (0.1 μM), or VX-765 (10 μM). […] Following another 24-h incubation, CCK-8 reagents were added and interacted with cells at 37° C. for 1 h. The absorbance was measured by a microplate reader (Infinite® M Plex) at the detection wavelength of 450 nm. For blocking assays with DFOM, 5×10^3 cells were seeded in 96-well plates and cultured 24 h for attachment. […] Following another 20-h incubation, CCK-8 reagents were added and interacted with cells at 37° C. for 1 h. The absorbance was measured by a microplate reader (Infinite® M Plex) at the detection wavelength of 450 nm.

Data set [3] concerns the target T1, ferritin and VHL (Mus musculus, UniProt P09528+P29391+P40338).
T1 construct: endogenous in cells; host or cells: B16F10 (murine melanoma)
Briefly: Co-immunoprecipitation of ferritin with anti-VHL antibody (ternary complex formation). It counts as cell-based, murine. The note with it: B16F10 cells, 5 μM, 2 h. How it is done: Co-Immunoprecipitation assay: B16F10 cells were seeded in T75 cell culture flasks (2×10^6 cells per well) and cultured for 24 h. […] After incubation for 2 h, cells were washed with cold PBS and lysed on ice with IP lysis buffer (50 mM Tris-HCl, pH 7.4; 150 mM NaCl; 2 mM EDTA; 1% NP-40) containing phenylmethylsulfonyl fluoride (PMSF, 1 mM) and the phosphatase inhibitor cocktail for 30 min. The lysates were collected and centrifuged at 10,000 g for 10 minutes at 4° C. On the one hand, 10 μL of lysate supernatants were saved as the input samples. On the other hand, 25 μL of magnetic beads was added to each supernatant in microcentrifuge tubes, and the resulting mixtures were incubated at 4° C. with gentle rotation for 30 min. Next, the sample-containing tube was placed on a magnetic rack for 1 minute, and the supernatant was transferred into a new microcentrifuge tube placed on ice, serving as the precleared samples. The total proteins in the precleared samples were quantified through the BCA assay. Each precleared lysate was added an appropriate amount of mouse monoclonal IgG1 κ anti-VHL antibody (sc-135657, Santa Cruz Biotechnology) and then incubated at 4° C. for 2 hours with gentle rotation. After that, the pre-washed magnetic bead (equal to 25 μL of magnetic beads) was added to each sample. The resulting mixtures were incubated at room temperature for 1 h with gentle rotation. […]

Data set [4] relates to cleaved caspase 3. Briefly: Western blot of cleaved caspase 3 in B16F10 cells. It counts as cell-based, murine. The note with it: 8 h. How it is done: as §1
Data set [5] relates to B16F10 cells. The experiment in a line: Morphology observation (pyroptosis). It counts as cell-based, murine. The note with it: 5 μM, 24 h. How it is done:
Morphology observation: 5×10^4 B16F10 cells were seeded in confocal dishes and cultured for 24 h at 37° C. […] After incubation for 24 h, the cells were washed with PBS and subjected to a Nikon Eclipse Ti Intensilight fluorescence microscope in a phase contrast mode for observation.

Data set [6] has as its system B16F10 cells. Briefly: Determination of intracellular free iron content. It counts as cell-based, murine. As to conditions: 5 μM, 8 h. How it is done: Determination of free iron content: Here, the focus was on detecting the intracellular free iron ions rather than protein-bound iron contents. The procedures for sample preparation were based on a previously reported method. B16F10 cells were seeded in T75 cell culture flasks (2×10^6 cells per well) and cultured for 24 h. […] After incubation for 8 h, cells were harvested and resuspended in 1 mL PBS. Besides, 800 μL of PBS cell suspension was subjected to centrifugation, and 780 μL of the supernatant was carefully removed. Afterward, 280 μL of ultrapure water was added to the cell precipitate. Following shaking at horizontal rotators for 12 h, the supernatant was transferred into 30 KDa ultrafiltration centrifuge tube after twice centrifugation at 2,000 g for 20 min. […] The lysates were centrifuged at 12,000 rpm for 10 min at 4° C., followed by quantification of the total proteins in the supernatant through the BCA assay.
As for iron content determination, 200 μL of the abovementioned filtrates were collected and treated with 10 μL of hydrochloric acid solution (6 mol/L), 100 μL of acetic acid-sodium acetate buffer (pH=4.5), 10 μL of 10% aqueous hydroxylamine hydrochloride, and 100 μL of o-phenanthroline (1 mg/mL). […] The iron ion content could be calculated according to the standard curve. […]

Data set [7] deals with B16F10 cells. The experiment in a line: ROS detection with DCFH-DA. It counts as cell-based, murine. As to conditions: 5 μM, 8 h, compared to DeFer-2epi and VHL ligand plus OA. How it is done:
ROS detection: DCFH-DA was used to evaluate the generation of intracellular ROS in cancer cells. 5×10^4 B16F10 cells were seeded in confocal dishes and cultured for 24 h at 37° C. […] After incubation for 8 h, cells were stained with DCFH-DA (10 μM) for 30 min. Finally, the cells were washed with PBS and subjected to Leica SP8 Confocal WLL STED Microscope for observation.

Like-named read-outs stand apart in the source and are kept apart here.

T1 sequence (P09528 2-182 limits assumed): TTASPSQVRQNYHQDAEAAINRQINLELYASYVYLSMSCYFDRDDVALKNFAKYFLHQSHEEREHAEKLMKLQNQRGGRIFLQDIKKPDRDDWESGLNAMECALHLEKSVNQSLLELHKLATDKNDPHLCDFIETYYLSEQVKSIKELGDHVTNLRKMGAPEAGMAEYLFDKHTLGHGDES
T1 sequence (P29391 2-183 limits assumed): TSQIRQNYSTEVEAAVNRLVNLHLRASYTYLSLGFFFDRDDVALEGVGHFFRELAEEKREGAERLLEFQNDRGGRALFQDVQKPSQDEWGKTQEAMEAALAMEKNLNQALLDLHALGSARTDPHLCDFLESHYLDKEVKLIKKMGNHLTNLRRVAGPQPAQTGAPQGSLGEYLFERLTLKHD
T1 sequence (P40338 whole entry): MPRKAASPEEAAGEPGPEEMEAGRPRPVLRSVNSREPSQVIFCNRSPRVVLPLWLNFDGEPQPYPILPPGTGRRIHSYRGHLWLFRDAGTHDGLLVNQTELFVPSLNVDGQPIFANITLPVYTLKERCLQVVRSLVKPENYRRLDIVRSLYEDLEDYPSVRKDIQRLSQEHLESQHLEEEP
T1 sequence (P62869 whole entry partner): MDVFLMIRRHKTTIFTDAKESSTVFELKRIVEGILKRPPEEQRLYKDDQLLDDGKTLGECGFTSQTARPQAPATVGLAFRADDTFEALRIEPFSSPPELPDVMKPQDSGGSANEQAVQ
T1 sequence (P83940 whole entry partner): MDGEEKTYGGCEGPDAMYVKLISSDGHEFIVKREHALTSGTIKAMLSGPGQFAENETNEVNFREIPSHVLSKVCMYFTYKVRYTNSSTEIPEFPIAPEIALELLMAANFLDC

On to `CCCCCCCCC=CCCCCCCCC(=O)NCCCC(=O)NC(C(=O)N1CC(O)CC1C(=O)NCc1ccc(-c2scnc2C)cc1)C(C)(C)C` (stereo not drawn) [DeFer-2], for which, in data set [1], the “generation of GSDME-N” value is listed as “enhance the generation of GSDME-N”. Moreover, the “cytotoxicity against B16F10 cells” value in data set [2] is on record as “severe cytotoxicity”. The IC50 in data set [2] (B16-F10, 24 h) was 3.1 µM; in data set [2] (B16-F10, 48 h) it was 1.5 µM. The “ferritin co-precipitated with VHL” value in data set [3] is recorded as “could induce ferritin co-precipitated with VHL”. Besides, the “level of cleaved caspase 3” value in data set [4] is given as “increased the level of cleaved caspase 3 in a dose-dependent manner”. Besides, the “morphology of dying cells” value in data set [5] is “obvious swelling and characteristic membrane blebbing”. Also, in data set [6], the “intracellular free iron content” value is “significant elevation”. The ROS level entry in data set [7] is “sharp rise in the ROS level”.
